IC50 and Activity data for four molecules are collected here from ChEMBL document CHEMBL5143603, “Discovery of novel 2,8-diazaspiro[4.5]decan-1-one derivatives as potent RIPK1 kinase inhibitors” (Bioorg Med Chem, 2022).

Assay [1] deals with T1, Receptor-interacting serine/threonine-protein kinase 1 (Homo sapiens, UniProt Q13546).
T1 sequence (Q13546 whole entry): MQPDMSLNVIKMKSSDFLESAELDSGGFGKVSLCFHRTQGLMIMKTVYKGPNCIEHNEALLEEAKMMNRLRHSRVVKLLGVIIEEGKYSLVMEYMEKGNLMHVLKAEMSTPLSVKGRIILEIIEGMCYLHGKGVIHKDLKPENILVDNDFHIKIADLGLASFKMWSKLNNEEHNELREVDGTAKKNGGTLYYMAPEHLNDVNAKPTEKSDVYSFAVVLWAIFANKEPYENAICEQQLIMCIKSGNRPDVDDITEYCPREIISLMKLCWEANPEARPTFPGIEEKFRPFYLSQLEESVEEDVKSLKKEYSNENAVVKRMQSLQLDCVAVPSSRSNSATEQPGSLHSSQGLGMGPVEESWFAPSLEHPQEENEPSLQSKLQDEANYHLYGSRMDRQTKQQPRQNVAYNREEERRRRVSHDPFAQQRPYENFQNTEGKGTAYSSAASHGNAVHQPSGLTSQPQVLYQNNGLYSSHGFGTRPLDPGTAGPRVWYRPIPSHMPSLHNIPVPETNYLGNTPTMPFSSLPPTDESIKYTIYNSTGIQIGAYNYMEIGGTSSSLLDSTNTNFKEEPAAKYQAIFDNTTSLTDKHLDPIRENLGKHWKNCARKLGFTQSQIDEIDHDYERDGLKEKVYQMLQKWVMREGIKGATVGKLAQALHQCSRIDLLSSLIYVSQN
The assay can be described thus: Inhibition of human RIPK1 incubated for 40 min in presence of ATP by ADP-Glo luminescence kinase assay. In general terms: ADP-Glo turns the ADP formed in a reaction into a luminescent signal.

The subject of assay [2] is U-937. The assay can be described thus: Anti-necroptotic activity in human U-937 cells assessed as inhibition of LPS/Z-VAD-fmk (LSZ)-induced necroptosis preincubated with PMA followed by compound addition and measured after 9 hrs by CCK8 assay. Particulars: DDE = dose-dependent effect. The format is functional, cell-based.
Assay [3] concerns U-937. Nature of the assay: Anti-necroptotic activity in human U-937 cells assessed as decrease in phosphorylation of MLKL level preincubated with PMA and LPS followed by compound addition and measured after 9 hrs by western blot analysis. The format is functional, cell-based. The following applies: DDE = dose-dependent effect. In general terms: Immunoblotting shows a protein as a band on a membrane.

In general, IC50 refers to the concentration needed to halve the response being measured.

Molecules are shown by their SMILES.

For the molecule `CCC(C)(C)C(=O)N(O)Cc1ccccc1`, the IC50 in assay [1] stood at 298 nM.
As to `O=C(c1ccccc1)N1CCC2(CC1)CN(Cc1ccccc1)C2=O`, in assay [1], the IC50 was found to be 1010 nM.
On to `CN1C(=O)C(Cc2c[nH]c3ccccc23)NC1=S` (stereo not given) [NECROSTATIN], for which the concentration for half-maximal inhibition (IC50) in assay [1] was 1140 nM.
`Cn1ccc2ccc(C(=O)N3CCC4(CC3)CCN(Cc3cc(F)ccc3F)C4=O)cc21`: the Activity entry in the assay on U-937 [2] and in the assay on U-937 [3] was “Dde” each time.
